According to patent US5622966A, “7-substituted quinolones and naphthyridones as antibacterial agents” (Warner-Lambert Company, priority 1995, dated 1997):
In brackets after ≈: the same amount, converted by molar mass.

Key:
Experiment in all cases: In vitro antibacterial activity, microtitration dilution method (MIC)
Format in all cases: cell-based
[1] = test system: E. coli Vogel; conditions: Escherichia coli, read-out: Minimal Inhibitory Concentration MIC
Description: (§1) The compounds of the invention display antibacterial activity when tested by the microtitration dilution method as described in Heifetz, et al, Antimicr. Agents & Chemoth. 6:124 (1974), which is incorporated herein by reference.
(§2) By use of the above reference method, the following minimum inhibitory concentration value (MICs in μg/mL) shown in Table I were obtained for representative compounds of the invention.

[2] = test system: Enter. cloac.; conditions: read-out: Minimal Inhibitory Concentration MIC
Description: as §1, §2

[3] = test system: Kleb. pneu.; conditions: read-out: Minimal Inhibitory Concentration MIC
Description: as §1, §2

[4] = test system: Prot. rettg.; conditions: read-out: Minimal Inhibitory Concentration MIC
Description: as §1, §2

[5] = test system: Pseu. aeru.; conditions: read-out: Minimal Inhibitory Concentration MIC
Description: as §1, §2

[6] = test system: S. aureus R; conditions: Staphylococcus aureus, read-out: Minimal Inhibitory Concentration MIC
Description: as §1, §2

[7] = test system: S. aureus S; conditions: Staphylococcus aureus, read-out: Minimal Inhibitory Concentration MIC
Description: as §1, §2

[8] = test system: Streptococcus faec.; conditions: read-out: Minimal Inhibitory Concentration MIC
Description: as §1, §2

[9] = test system: Streptococcus pneum.; conditions: read-out: Minimal Inhibitory Concentration MIC
Description: as §1, §2

[10] = test system: Streptococcus pyog.; conditions: read-out: Minimal Inhibitory Concentration MIC
Description: as §1, §2

Row | MIC [1] [µg/mL] | MIC [2] [µg/mL] | MIC [3] [µg/mL] | MIC [4] [µg/mL] | MIC [5] [µg/mL] | MIC [6] [µg/mL] | MIC [7] [µg/mL] | MIC [8] [µg/mL] | MIC [9] [µg/mL] | MIC [10] [µg/mL] | SMILES
1 | 0.1 (≈ 0.254 µM) | 0.1 (≈ 0.254 µM) | 0.2 (≈ 0.508 µM) | 0.2 (≈ 0.508 µM) | 0.8 (≈ 2.03 µM) | 0.006 (≈ 0.0153 µM) | ≤ 0.003 | 0.05 (≈ 0.127 µM) | 0.05 (≈ 0.127 µM) | 0.05 (≈ 0.127 µM) | O=C(O)c1cn(C2CC2)c2cc(N3CCC(c4ccccn4)C3)c(F)cc2c1=O (stereo not shown) [Example 17, 1-Cyclopropyl-6-fluoro-1,4-dihydro-4-oxo-7-[3-(2-pyridinyl)-1-pyrrolidinyl]-3-quinolinecarboxylic acid]
2 | 0.1 (≈ 0.254 µM) | 0.1 (≈ 0.254 µM) | 0.2 (≈ 0.508 µM) | 0.2 (≈ 0.508 µM) | 0.8 (≈ 2.03 µM) | 0.006 (≈ 0.0153 µM) | ≤ 0.003 | 0.025 (≈ 0.0635 µM) | 0.025 (≈ 0.0635 µM) | 0.025 (≈ 0.0635 µM) | O=C(O)c1cn(C2CC2)c2cc(N3CCC(c4cccnc4)C3)c(F)cc2c1=O (stereo not shown) [Example 21, 1-Cyclopropyl-6-fluoro-1,4-dihydro-4-oxo-7-[3-(3-pyridinyl)-1-pyrrolidinyl]-3-quinolinecarboxylic acid]
3 | 0.1 (≈ 0.235 µM) | 0.1 (≈ 0.235 µM) | 0.2 (≈ 0.469 µM) | 0.2 (≈ 0.469 µM) | 1.6 (≈ 3.75 µM) | 0.006 (≈ 0.0141 µM) | ≤ 0.003 | 0.05 (≈ 0.117 µM) | 0.025 (≈ 0.0586 µM) | 0.025 (≈ 0.0586 µM) | Nc1c(F)c(N2CCC(c3cccnc3)C2)c(F)c2c1c(=O)c(C(=O)O)cn2C1CC1 (stereo not shown) [Example 22, 5-Amino-1-cyclopropyl-6,8-difluoro-1,4-dihydro-4-oxo-7-[3-(3-pyridinyl)-1-pyrrolidinyl]-3-quinoline-carboxylic acid]
4 | 0.2 (≈ 0.469 µM) | 0.2 (≈ 0.469 µM) | 0.4 (≈ 0.938 µM) | 0.4 (≈ 0.938 µM) | 3.1 (≈ 7.27 µM) | 0.006 (≈ 0.0141 µM) | ≤ 0.003 | 0.05 (≈ 0.117 µM) | 0.05 (≈ 0.117 µM) | 0.05 (≈ 0.117 µM) | Nc1c(F)c(N2CCC(c3ccncc3)C2)c(F)c2c1c(=O)c(C(=O)O)cn2C1CC1 (stereo not shown) [Example 25, 5-Amino-1-cyclopropyl-6,8-difluoro-1,4-dihydro-4-oxo-7-[3-(4-pyridinyl)-1-pyrrolidinyl]-3-quinoline-carboxylic acid]
5 | 0.05 (≈ 0.11 µM) | 0.05 (≈ 0.11 µM) | 0.1 (≈ 0.22 µM) | 0.2 (≈ 0.439 µM) | 1.6 (≈ 3.51 µM) | 0.025 (≈ 0.0549 µM) | 0.013 (≈ 0.0285 µM) | 0.025 (≈ 0.0549 µM) | 0.025 (≈ 0.0549 µM) | 0.025 (≈ 0.0549 µM) | NCc1cccnc1C1CCN(c2c(F)c(N)c3c(=O)c(C(=O)O)cn(C4CC4)c3c2F)C1 (stereo not shown) [Example 29, 5-Amino-7-[3-[3-(aminomethyl)-2-pyridinyl]-1-pyrrolidinyl]-1-cyclopropyl-6,8-difluoro-1,4-dihydro-4-oxo-3-quinolinecarboxylic acid]

The next lines start with the compound.

Row | SMILES | MIC [1] [µg/mL] | MIC [2] [µg/mL] | MIC [3] [µg/mL] | MIC [4] [µg/mL] | MIC [5] [µg/mL] | MIC [6] [µg/mL] | MIC [7] [µg/mL] | MIC [8] [µg/mL] | MIC [9] [µg/mL] | MIC [10] [µg/mL]
6 | NCc1ccccc1C1CCN(c2nc3c(cc2F)c(=O)c(C(=O)O)cn3C2CC2)C1 (stereo not shown) [Example 1, 7-[3-[2-(Aminomethyl)phenyl]-1-pyrrolidinyl]-1-cyclopropyl-6-fluoro-1,4-dihydro-4-oxo-1,8-naphthyridine-3-carboxylic acid] | 0.1 (≈ 0.237 µM) | 0.1 (≈ 0.237 µM) | 0.2 (≈ 0.473 µM) | 0.4 (≈ 0.947 µM) | 1.6 (≈ 3.79 µM) | 0.05 (≈ 0.118 µM) | 0.013 (≈ 0.0308 µM) | 0.05 (≈ 0.118 µM) | 0.025 (≈ 0.0592 µM) | 0.025 (≈ 0.0592 µM)
7 | NCc1cccc(C2CCN(c3nc4c(cc3F)c(=O)c(C(=O)O)cn4C3CC3)C2)c1 (stereo not shown) [Example 6, 7-[3-[3-(Aminomethyl)phenyl]-1-pyrrolidinyl]-1-cyclopropyl-6-fluoro-1,4-dihydro-4-oxo-1,8-naphthyridine-3-carboxylic acid] | 0.05 (≈ 0.118 µM) | 0.05 (≈ 0.118 µM) | 0.05 (≈ 0.118 µM) | 0.1 (≈ 0.237 µM) | 0.8 (≈ 1.89 µM) | 0.013 (≈ 0.0308 µM) | 0.006 (≈ 0.0142 µM) | 0.025 (≈ 0.0592 µM) | 0.006 (≈ 0.0142 µM) | 0.006 (≈ 0.0142 µM)
8 | NCc1cccc(C2CCN(c3cc4c(cc3F)c(=O)c(C(=O)O)cn4C3CC3)C2)c1 (stereo not shown) [Example 7, 7-[3-[3-(Aminomethyl)phenyl]-1-pyrrolidinyl]-1-cyclopropyl-6-fluoro-1,4-dihydro-4-oxo-3-quinolinecarboxylic acid] | 0.05 (≈ 0.119 µM) | 0.05 (≈ 0.119 µM) | 0.1 (≈ 0.237 µM) | 0.1 (≈ 0.237 µM) | 0.8 (≈ 1.9 µM) | 0.025 (≈ 0.0593 µM) | 0.006 (≈ 0.0142 µM) | 0.013 (≈ 0.0308 µM) | ≤ 0.003 | ≤ 0.003
9 | NCc1cccc(C2CCN(c3c(F)c(N)c4c(=O)c(C(=O)O)cn(C5CC5)c4c3F)C2)c1 (stereo not shown) [Example 8, 5-Amino-7-[3-[3-(aminomethyl)phenyl]-1-pyrrolidinyl]-1-cyclopropyl-6,8-difluoro-1,4-dihydro-4-oxo-3-quinolinecarboxylic acid] | 0.05 (≈ 0.11 µM) | 0.05 (≈ 0.11 µM) | 0.1 (≈ 0.22 µM) | 0.2 (≈ 0.44 µM) | 0.8 (≈ 1.76 µM) | 0.013 (≈ 0.0286 µM) | ≤ 0.003 | 0.013 (≈ 0.0286 µM) | 0.006 (≈ 0.0132 µM) | 0.013 (≈ 0.0286 µM)
10 | NCc1ccc(C2CCN(c3c(F)c(N)c4c(=O)c(C(=O)O)cn(C5CC5)c4c3F)C2)cc1 (stereo not shown) [Example 11, 5-Amino-7-[3-[4-(aminomethyl)phenyl]-1-pyrrolidinyl]-1-cyclopropyl-6,8-difluoro-1,4-dihydro-4-oxo-3-quinolinecarboxylic acid] | 0.1 (≈ 0.22 µM) | 0.1 (≈ 0.22 µM) | 0.2 (≈ 0.44 µM) | 0.2 (≈ 0.44 µM) | 0.8 (≈ 1.76 µM) | 0.013 (≈ 0.0286 µM) | ≤ 0.003 | 0.013 (≈ 0.0286 µM) | 0.013 (≈ 0.0286 µM) | 0.013 (≈ 0.0286 µM)
11 | CNCc1cccc(C2CCN(c3c(F)c(N)c4c(=O)c(C(=O)O)cn(C5CC5)c4c3F)C2)c1 (stereo not shown) [Example 13, 5-Amino-1-cyclopropyl-6,8-difluoro-1,4-dihydro-7-[3-[3-[(methylamino)methyl]phenyl]-1-pyrrolidinyl]-4-oxo-3-quinolinecarboxvlic acid] | 0.2 (≈ 0.427 µM) | 0.2 (≈ 0.427 µM) | 0.4 (≈ 0.854 µM) | 0.8 (≈ 1.71 µM) | 1.6 (≈ 3.42 µM) | 0.05 (≈ 0.107 µM) | 0.013 (≈ 0.0277 µM) | 0.05 (≈ 0.107 µM) | 0.05 (≈ 0.107 µM) | 0.05 (≈ 0.107 µM)
12 | CNCc1ccc(C2CCN(c3cc4c(cc3F)c(=O)c(C(=O)O)cn4C3CC3)C2)cc1 (stereo not shown) [Example 14, 1-Cyclopropyl-6-fluoro-1,4-dihydro-7-[3-[4-[(methylamino)methyl]phenyl]-1-pyrrolidinyl]-4-oxo-3-quinolinecarboxylic acid] | 0.2 (≈ 0.459 µM) | 0.2 (≈ 0.459 µM) | 0.4 (≈ 0.918 µM) | 0.4 (≈ 0.918 µM) | 1.6 (≈ 3.67 µM) | 0.013 (≈ 0.0299 µM) | 0.006 (≈ 0.0138 µM) | 0.025 (≈ 0.0574 µM) | 0.013 (≈ 0.0299 µM) | 0.013 (≈ 0.0299 µM)
13 | CNCc1ccc(C2CCN(c3c(F)c(N)c4c(=O)c(C(=O)O)cn(C5CC5)c4c3F)C2)cc1 (stereo not shown) [Example 15, 5-Amino-1-cyclopropyl-6,8-difluoro-1,4-dihydro-7-[3-[4-[(methylamino)methyl]phenyl]-1-pyrrolidinyl]-4-oxo-3-quinolinecarboxylic acid] | 0.2 (≈ 0.427 µM) | 0.2 (≈ 0.427 µM) | 0.4 (≈ 0.854 µM) | 0.4 (≈ 0.854 µM) | 1.6 (≈ 3.42 µM) | 0.013 (≈ 0.0277 µM) | 0.006 (≈ 0.0128 µM) | 0.025 (≈ 0.0534 µM) | 0.013 (≈ 0.0277 µM) | 0.013 (≈ 0.0277 µM)
